This note sets out measurements from patent US20110071197A1, “BIS-ARYL COMPOUNDS FOR USE AS MEDICAMENTS” (priority 2008, published 2011).

pIC50: −log10 of the molar value.

Assay [1] concerns the target T1, Recombinant human LTC4 synthase (Homo sapiens, UniProt Q16873).
T1 construct: made in house; host or cells: Pichia pastoris
T1 sequence (Q16873 1-150): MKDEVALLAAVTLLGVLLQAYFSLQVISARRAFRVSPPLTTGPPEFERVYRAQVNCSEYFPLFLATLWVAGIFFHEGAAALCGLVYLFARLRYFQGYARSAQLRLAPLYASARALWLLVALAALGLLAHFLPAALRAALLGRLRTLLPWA
The assay can be described thus: LTC4 synthase in vitro assay (HPLC method). It is filed as biochemical. Conditions: inhibition of LTC4 synthase. The procedure:
In the assay, LTC4 synthase catalyses the reaction where the substrate LTA4 methyl ester is converted to the corresponding LTC4 methyl ester. Recombinant human LTC4 synthase is expressed in Piccia pastoralis and the purified enzyme is dissolved in 25 mM Tris-buffer pH 7.8 and stored at −80° C. The assay is performed in phosphate buffered saline (PBS) pH 7.4, supplemented with 5 mM glutathione (GSH). The reaction is terminated by addition of acetonitrile/MeOH/acetic acid (50/50/1). The assay is performed at rt in 96-well plates. Analysis of the formed LTC4 methyl ester is performed with reversed phase HPLC (Waters 2795 utilizing an Onyx Monolithic C18 column). The mobile phase consists of acetonitrile/MeOH/H2O (32.5/30/37.5) with 1% acetic acid pH adjusted with NH3 to pH 5.6, and absorbance measured at 280 nm with a Waters 2487 UV-detector.
The following is added chronologically to each well: • 1. 50 μl assay buffer, PBS with 5 mM GSH. • 2. 0.5 μl inhibitor in DMSO (final conc. 1 nM-10 μM). • 3. 2 μl LTC4 synthase in PBS. The total protein concentration in this solution is 0.025 mg/ml. Incubation of the plate at room temperature for 10 minutes. • 4. 1-1.5 μl LTA4 methyl ester (final conc. 10 μM). Incubation of the plate at rt for 1 min. • 5. 50 μl stop solution.
80 μl of the incubation mixture is analysed with HPLC.

The target in assay [2] is T1, Recombinant human LTC4 synthase. The assay can be described thus: LTC4 synthase in vitro assay (HTRF detection of LTC4). Conditions: HTRF method. Format: biochemical. The essentials:
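Pichia-expressed recombinant human LTC4 synthase at 0.5 μg/ml total protein in PBS pH 7.4 with 5 mM GSH, preincubated 10 min at RT with inhibitor (10 μM final). LTA4 (2.5 μM final) was then added for 5 min at RT. LTC4 formed was read by HTRF.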
On the technique in general: TR-FRET usually uses a lanthanide donor and a delayed reading to cut background.

Setting [3] is: total concentration of title compound in the assay 10 μM.

The pIC50 is −log10 of the IC50, conventionally taken in molar units. One may read the inhibition as the drop in the measured response relative to a control, in per cent.

In the case of `O=C(O)c1cc(Oc2ccc(Nc3ccc(F)cc3)c(C(=O)O)c2)ccc1Nc1ccc(F)cc1` [1:2, 3,3′-oxybis[6-(4-fluorophenyl-amino)benzoic acid]], the pIC50 in assay [1] is 6.07. In assay [2] (setting [3]), the inhibition at 10 µM came to 97%.

Consider `O=C(Nc1ccc(Sc2ccc(NC(=O)Nc3ccc(C(F)(F)F)cc3)c(C(=O)O)c2)cc1)Nc1ccc(C(F)(F)F)cc1` [14:6, 2-[3-(4-trifluoromethyl-phenyl)ureido]-5-{4-[3-(4-trifluoromethylphenyl)-ureido]phenylsulfanyl}-benzoic acid], for which, in assay [1], the pIC50 was 6.35. In addition, in assay [2] (compound concentration 3 μM), the inhibition at 3 µM was 80%.

In the case of `CCCCOc1ccc(S(=O)(=O)Nc2ccc(Oc3cccc(S(=O)(=O)Nc4ccc(Cl)cc4)c3)cc2C(=O)O)cc1` [19:1, 2-(4-Butoxy-benzenesulfonylamino)-5-[3-(4-chloro-phenylsufamoyl)-phenoxy]-benzoic acid], the pIC50 in assay [1] is 5.94. Also, the inhibition at 10 µM in assay [2] (setting [3]) is 100%.

As to `CCCCOc1ccc(S(=O)(=O)Nc2ccc(Oc3cccc(Oc4ccc(F)c(F)c4)c3)cc2C(=O)O)cc1` [28:1], the pIC50 in assay [1] is 6.20. Further, the inhibition at 10 µM in assay [2] (setting [3]) is 98%.

On to `CC(C)(C)c1ccc(C(=O)Nc2cccc(Oc3ccc(NS(=O)(=O)c4ccc(C(C)(C)C)cc4)c(C(=O)O)c3)c2)cc1` [29:1], for which, in assay [1], the negative logarithm of the IC50 (pIC50) was 6.10. For the same compound, the inhibition at 10 µM in assay [2] (setting [3]) was 97%.

For the compound `O=C(O)c1cc(Sc2ccc(Nc3ccc(F)c(F)c3)cc2)ccc1Nc1ccc(F)c(F)c1` [Example 14:2, 2-(3,4-difluorophenylamino)-5-[4-(3,4-difluoro-phenylamino)-phenylsulfanyl]-benzoic acid], the inhibition at 10 µM in assay [2] (setting [3]) stood at 99%.

`CCCCOc1ccc(S(=O)(=O)Nc2ccc(Oc3ccc(NC(=O)c4ccccc4)cc3)cc2/C=C/C(=O)O)cc1` [Example 22:1, (E)-3-[5-(4-Benzoylaminophenoxy)-2-(4-butoxybenzenesulfonylamino)-phenyl]acrylic acid]: the inhibition at 10 µM in assay [2] (setting [3]) was 96%.

For `CCCCOc1ccc(S(=O)(=O)Nc2ccc(Oc3ccc(NC(=O)c4ccccc4)cc3)cc2CCC(=O)O)cc1` [Example 22:2, 3-[5-(4-Benzoylaminophenoxy)-2-(4-butoxybenzenesulfonylamino)-phenyl]propionic acid], in assay [2] (setting [3]), the inhibition at 10 µM was 99%.

With `CC(C)Oc1ccc(C(=O)Nc2ccc(Oc3ccc(NC(=O)c4ccccc4)cc3)cc2/C=C/C(=O)O)cc1` [Example 22:3, (E)-3-[5-(4-Benzoylaminophenoxy)-2-(4-isopropoxy-benzoylamino)-phenyl]acrylic acid], in assay [1], the pIC50 was 5.29. For the same compound, the inhibition at 10 µM in assay [2] (setting [3]) worked out at 72%.

For the compound `CCCCOc1ccc(S(=O)(=O)Nc2ccc(Oc3ccc(NC(=O)c4ccc(OC(C)C)cc4)c(C(=O)O)c3)cc2/C=C/C(=O)O)cc1` [Example 22:4, 5-[4-(4-butoxybenzenesulfonyl-amino)-3-((E)-2-carboxyvinyl)-phenoxy]-2-(4-isopropoxy-benzoylamino)benzoic acid], the inhibition at 10 µM in assay [2] (setting [3]) amounted to 100%.

Regarding `CCCCN(c1ccc(F)c(F)c1)c1ccc(Oc2ccc(Nc3ccc(F)c(F)c3)c(C(=O)O)c2)cc1C(=O)O` [Example 24:3, 2-[butyl-(3,4-difluorophenyl)amino]-5-[3-carboxy-4-(3,4-difluorophenyl-amino)phenoxy]benzoic acid], the inhibition at 10 µM in assay [2] (setting [3]) was 97%.

As for `O=C(O)c1cc(Oc2ccc(S(=O)(=O)Nc3ccc(Cl)cc3)cc2)ccc1Nc1ccc(F)c(F)c1` [Example 25:7, 5-[4-(4-Chlorophenylsulfamoyl)-phenoxy]-2-(3,4-difluorophenyl-amino)benzoic acid], the inhibition at 10 µM in assay [2] (setting [3]) turned out to be 100%.

As to `O=C(Nc1ccc(Oc2cccc(Oc3ccc(F)c(F)c3)c2)cc1C(=O)O)c1ccc(OC2CCCC2)cc1` [Example 28:2, 2-(4-Cyclopentyloxybenzoylamino)-5-[3-(3,4-difluorophenoxy)phenoxy]benzoic acid], the inhibition at 10 µM in assay [2] (setting [3]) is 94%.

On to `O=C(O)c1cc(Oc2cccc(Oc3ccc(F)c(F)c3)c2)ccc1Nc1ccc(F)c(F)c1` [Example 28:3, 5-[3-(3,4-Difluoro-phenoxy)-phenoxy]-2-(3,4-difluoro-phenylamino)-benzoic acid], for which the inhibition at 10 µM in assay [2] (setting [3]) worked out at 96%.

With `O=C(O)c1cc(Oc2ccc(NS(=O)(=O)c3ccc(OC(F)(F)F)cc3)cc2)ccc1NS(=O)(=O)c1ccc(OC(F)(F)F)cc1` [Example 30:3, 2-(4-Trifluoromethoxybenzenesulfonylamino)-5-[4-(4-trifluoromethoxybenzene-sulfonylamino)phenoxy]benzoic acid], the inhibition at 10 µM in assay [2] (setting [3]) is 100%.

With `CCCCOc1ccc(S(=O)(=O)Nc2ccc(Oc3ccc(Nc4ccc(F)c(F)c4)cc3)cc2-c2nnn[nH]2)cc1` [Example 32:3, 4-Butoxy-N-[4-[4-(3,4-difluorophenyamino)phenoxy]-2-(tetrazol-5-yl)phenyl]-benzenesulfonamide], the “% inh.” value in assay [2] (setting [3]) was found to be 98%.

`O=C(O)c1cc(Oc2ccc(Nc3ccc(F)c(F)c3)cn2)ccc1Nc1ccc(F)c(F)c1` [Example 33:1, 2-(3,4-Difluorophenylamino)-5-[5-(3,4-difluorophenylamino)pyridin-2-yloxy]-benzoic acid]: the inhibition at 10 µM in assay [2] (setting [3]) stood at 97%.

For `Cc1c(Cl)cccc1S(=O)(=O)Nc1ccc(Oc2ccc(Nc3ccc(F)c(F)c3)c(C(=O)O)c2)cn1` [Example 33:2, 5-(6-(3-Chloro-2-methylphenylsulfonamido)pyridin-3-yloxy)-2-(3,4-difluorophenylamino)benzoic acid], the inhibition at 10 µM in assay [2] (setting [3]) was 99%.

As for `O=C(Nc1ccc(Sc2ccc(NC(=O)c3ccc(Cl)cc3Cl)c(C(=O)O)c2)cc1)c1ccc(C(F)(F)F)cc1` [Example 35:1, 2-(2,4-Dichlorobenzoylamino)-5-[4-(4-trifluoromethylbenzoylamino)phenyl-sulfanyl]benzoic acid], the inhibition at 10 µM in assay [2] (setting [3]) turned out to be 99%.

As for `O=C(Nc1ccc(Sc2ccc(NS(=O)(=O)c3ccc(Cl)cc3F)c(C(=O)O)c2)cc1)c1ccc(C(F)(F)F)cc1` [Example 35:2, 2-(4-Chloro-2-fluoro-benzenesulfonylamino)-5-[4-(4-trifluoromethylbenzoylamino)-phenylsulfanyl]benzoic acid], in assay [2] (setting [3]), the inhibition at 10 µM worked out at 100%.
